{
  "source": "patent US4087520A",
  "about": "“Lowering blood pressure with new L-3-(3,4-dihydroxyphenyl)-2-methyl-alanine peptides” (Boehringer Mannheim GmbH, priority 1975, dated 1978)",
  "data": [
    {"test_system": "blood pressure of rats with arterial high pressure", "experiment": "Blood pressure depression in awake hypertensive rats (11-deoxycorticosteroneacetate plus common salt), direct arterial catheter measurement", "assay_type": "in vivo", "conditions": "hypertensive rats (10% sodium chloride in feed + 11-deoxycorticosteroneacetate), 0.6 millimole/kg perorally in 1% methyl cellulose, 4 hours after oral application, median of at least 6 measurements", "method": "The test animals were rats into which arterial catheters had been implanted in a sterile operation via the arteria femoralis into the aorta. It was possible to measure the animals' blood pressure in the awake state directly in the blood with a transducer (Statham Transducer Type TP 23 D 6) via a carrier frequency measuring bridge. The animals were treated by administration of 10% common salt (sodium chloride) in their feed and, starting on the sixth week of their life, two injections per week of 5 mg at a time of 11-deoxycorticosteroneacetate per animal and thus developed an arterial high pressure in the median with values of […]. The test compounds were administered to the animals as follows: After the blood pressure control values had been determined, the animals received the test compound perorally suspended in 10 ml of 1% methyl cellusose solution in a dosage of 0.6 millimole/kg and measurements were taken 4 hours after oral application of the substance.\nThe values set forth in the Table represent in each case the median of at least 6 individual measurements of blood pressure depression (in mm Hg) per applied substance.", "units": {"Blood Pressure Reduction": "mm Hg"}, "values": [
      {"molecule": "C[C@](N)(Cc1ccc(O)c(O)c1)C(=O)O", "note": "[α-Methyl-Dopa, L-3-(3,4-dihydroxyphenyl)-2-methyl-alanine]", "Blood Pressure Reduction": "33 ± 4.9"},
      {"molecule": "C[C@H](N)C(=O)N[C@@](C)(Cc1ccc(O)c(O)c1)C(=O)O", "note": "[L-Alanyl-L-3-(3,4-dihydroxyphenyl)-2-methyl-alanine]", "Blood Pressure Reduction": "51 ± 6.0"},
      {"molecule": "C[C@@](Cc1ccc(O)c(O)c1)(NC(=O)[C@@H](N)CO)C(=O)O", "note": "[L-Seryl-L-3-(3,4-dihydroxyphenyl)-2-methyl-alanine]", "Blood Pressure Reduction": "52 ± 7.5"},
      {"molecule": "C[C@H](N)C(=O)N[C@@H](C)C(=O)N[C@@](C)(Cc1ccc(O)c(O)c1)C(=O)O", "note": "[L-Alanyl-L-alanyl-L-3-(3,4-dihydroxyphenyl)-2-methylalanine]", "Blood Pressure Reduction": "58 ± 5.8"},
      {"molecule": "C[C@@](Cc1ccc(O)c(O)c1)(NC(=O)CN)C(=O)O", "note": "[Glycyl-L-3-(3,4-dihydroxyphenyl)-2-methyl-alanine]", "Blood Pressure Reduction": "37 ± 9.1"}
    ]}
  ]
}
